Literature values in article PMC11243490, “Enzymatic Fructosylation of Phenolic Compounds: A New Alternative for the Development of Antidiabetic Drugs” (Molecules, 2024).
≈ marks a conversion by molar mass, not a printed value.

Experiments:
[1] = design: method as in PMID 30638505, PMID 33992405, doi:10.1016/j.imu.2022.100880; conditions: reported properties
[2] = reported properties
[3] = design: method as in PMID 30638505, PMID 33992405, doi:10.1016/j.imu.2022.100880; conditions: reported properties; remark: listed apart in the source
[4] = design: method as in PMID 30638505, PMID 33992405, doi:10.1016/j.imu.2022.100880; conditions: reported properties; remark: listed apart in the source
CYP2C9 = tested on: CYP2C9; design: method as in PMID 27518169; conditions: human liver microsomes
CYP1A2 = tested on: CYP1A2; design: method as in PMID 27518169; conditions: human liver microsomes
[5] = tested on: key proteins in type 2 diabetes; design: method as in PMID 32258479; conditions: strongest interactions
[6] = tested on: EGFR, SRC, ESR1, and HSP90AA1 diabetic proteins; design: method as in PMID 37754241; conditions: range over EGFR

| SMILES | Solubility [1] | DPPH % Free Radical Scavenging Activity [2] | other results |
| --- | --- | --- | --- |
| O=C(CCc1ccc(O)cc1)c1c(O)cc(O)cc1O[C@@H]1O[C@H](CO)[C@@H](O)[C@H](O)[C@H]1O [PH, phloretin-2′-β-D-glucopyranoside] | 1930 ± 30 µg/mL (≈ 4.42 mM) | 62.13 ± 1.8% | – |
| COc1cc(C=CC(=O)O)ccc1O [FA, 4-hydroxy-3-methoxycinnamic acid] | – | 70.04 ± 2.3% | ABTS % Free Radical Scavenging Activity [3]: 90.69 ± 0.14%; NO % Free Radical Scavenging Activity [4]: 22.21 ± 1.39% |
| O=C(O[C@@H]1Cc2c(O)cc(O)cc2O[C@@H]1c1cc(O)c(O)c(O)c1)c1cc(O)c(O)c(O)c1 [EGCG, epigallocatechin gallate] | – | – | inhibition of CYP2C9 (CYP2C9): 7.60 µM; inhibition of CYP1A2 (CYP1A2): 8.93 µM |
| O=c1c(-c2ccc(O)cc2)coc2c([C@@H]3O[C@H](CO)[C@@H](O)[C@H](O)[C@H]3O)c(O)ccc12 [PU, daidzein-8-C-glucoside] | 700 ± 90 µg/mL (≈ 1.68 mM) | 33.3% | – |
| O=c1c(-c2ccc(O)cc2)coc2c(C3OC(COC4(CO)OC(CO)C(O)C4O)C(O)C(O)C3O)c(O)ccc12 [MFP, β-D-fructofuranosyl-β-(2→6)-puerarin] | 16200 ± 1700 µg/mL (≈ 28 mM) | 26.2 ± 1.3% | – |
| COc1cc(/C=C/C(=O)OC2(CO)OCC(O)C(O)C2O)ccc1O [MFF, β-D-Fructopyranosyl-β-(2→6)-ferulate] | 8690 ± 450 µg/mL (≈ 24.4 mM) | 17.16 ± 0.81% | ABTS % Free Radical Scavenging Activity [3]: 90.95 ± 0.18%; NO % Free Radical Scavenging Activity [4]: 3.27 ± 1.02% |
| OC[C@H]1O[C@@H](Oc2cc3c(O)cc(O)cc3[o+]c2-c2cc(O)c(O)c(O)c2)[C@H](O)[C@@H](O)[C@@H]1O [delphinidin 3-glucoside] | – | – | free binding energies [5]: −7.3 to −6.10 |
| CCCCCc1cc(O)c2c(c1)OC(C)(C)c1ccc(C)cc1-2 [cannabinol] | – | – | free binding energy [6]: -7.44 to -6.38 kcal/mol |
| O=C(CCc1ccc(O)cc1)c1c(O)cc(O)cc1OC1OC(COC2(CO)OC(CO)C(O)C2O)C(O)C(O)C1O [MFPh, β-D-fructofuranosyl-β-(2→6)-phlorizin] | 30570 ± 100 µg/mL (≈ 51.1 mM) | 44.56 ± 8.4% | – |
| OC[C@H]1O[C@@H](Oc2cc3c(O)cc(O)cc3[o+]c2-c2ccc(O)c(O)c2)[C@H](O)[C@@H](O)[C@@H]1O [cyanidin 3-glucoside] | – | – | free binding energies [5]: −7.3 to −6.10 |
